In patent US10583137B2, “Triazole DAGLα inhibitors” (THE SCRIPPS RESEARCH INSTITUTE, priority 2015, dated 2020):

What was measured:
[1] = biological target: DAGLβ (hDAGLβ-FLAG) (Homo sapiens (Human), UniProt Q8NCG7); test: competitive ABPP, membrane proteome of transfected HEK293T cells; format: biochemical; details: for IC50: read-out: DAGLβ IC50; for inhibition at 0.4 µM: read-out: DAGLβ % inh. 0.4 μM
Experimental: (§1) Compounds 19 and 20 were tested for in vitro inhibition of DAGLα and DAGLβ as measured by competitive activity-based protein profiling (ABPP) of […] using a HT-01 probe (targets DAGLα and DAGLβ) and a FP-Rh probe (targets serine hydrolases).
(§2) Briefly, membrane proteome (1 mg/ml, 20 μL) was prepared from HEK293T cells (transiently transfected with hDAGLα-FLAG or hDAGLα-S472A-FLAG, hDAGLβ-FLAG or hDAGLβ-S443A-FLAG) as described in Example 16. The proteome was incubated at room temperature with vehicle (DMSO) or compound in 0.5 μL DMSO for 30 min. The membrane proteome sample was subsequently treated for 30 min with HT-01 probe (1 μM) or FP-Rh probe (1 μM). The reactions were quenched with 10 μL 3× Laemmli sample buffer (final concentrations: 60 mM Tris-Cl pH 6.8, 2% (w/v) SDS, 10% (v/v) glycerol, 5% (v/v) (3-mercaptoethanol, 0.01% (v/v) bromophenol blue). The samples were directly loaded and resolved on SDS page gel (10% acrylamide). The gels were scanned using a ChemiDoc MP system (Cy3 settings, 605/50 filter).
(§3) The resolved proteins were transferred from the gels to a polyvinyldifluoride membrane for Western Blotting using a Trans-Blot® Turbo (BioRad). FLAG-tagged enzymes were stained using rabbit anti-FLAG as primary antibody, and goat-anti-rabbit HRP as secondary antibody. The blot was developed in the dark using a 10 mL luminal solution, 100 μL ECL enhancer and 3 μL H2O2. Chemiluminescence was visualized using a ChemiDoc XRS (BioRad).
(§4) The percentage of DAGL activity remaining in the assayed samples was determined by measuring the integrated optical intensity of the fluorescent protein bands of the Western Blot using image lab 4.1. The relative intensity was compared to the vehicle (DMSO) treated proteins, which were set to 100%. IC50 values were determined by plotting a log(inhibitor) vs. normalized response (Variable slope) dose-response curve generated using Prism software (GraphPad).

[2] = biological target: DAGLα (hDAGLα-FLAG) (Homo sapiens (Human), UniProt Q9Y4D2); test: as above; format: biochemical; details: for IC50: read-out: DAGLα IC50; for inhibition at 0.4 µM: read-out: DAGLα % inh. 0.4 μM
Experimental: as §1, §2, §3, §4

Sequence of DAGLα (hDAGLα-FLAG) (Q9Y4D2 whole entry): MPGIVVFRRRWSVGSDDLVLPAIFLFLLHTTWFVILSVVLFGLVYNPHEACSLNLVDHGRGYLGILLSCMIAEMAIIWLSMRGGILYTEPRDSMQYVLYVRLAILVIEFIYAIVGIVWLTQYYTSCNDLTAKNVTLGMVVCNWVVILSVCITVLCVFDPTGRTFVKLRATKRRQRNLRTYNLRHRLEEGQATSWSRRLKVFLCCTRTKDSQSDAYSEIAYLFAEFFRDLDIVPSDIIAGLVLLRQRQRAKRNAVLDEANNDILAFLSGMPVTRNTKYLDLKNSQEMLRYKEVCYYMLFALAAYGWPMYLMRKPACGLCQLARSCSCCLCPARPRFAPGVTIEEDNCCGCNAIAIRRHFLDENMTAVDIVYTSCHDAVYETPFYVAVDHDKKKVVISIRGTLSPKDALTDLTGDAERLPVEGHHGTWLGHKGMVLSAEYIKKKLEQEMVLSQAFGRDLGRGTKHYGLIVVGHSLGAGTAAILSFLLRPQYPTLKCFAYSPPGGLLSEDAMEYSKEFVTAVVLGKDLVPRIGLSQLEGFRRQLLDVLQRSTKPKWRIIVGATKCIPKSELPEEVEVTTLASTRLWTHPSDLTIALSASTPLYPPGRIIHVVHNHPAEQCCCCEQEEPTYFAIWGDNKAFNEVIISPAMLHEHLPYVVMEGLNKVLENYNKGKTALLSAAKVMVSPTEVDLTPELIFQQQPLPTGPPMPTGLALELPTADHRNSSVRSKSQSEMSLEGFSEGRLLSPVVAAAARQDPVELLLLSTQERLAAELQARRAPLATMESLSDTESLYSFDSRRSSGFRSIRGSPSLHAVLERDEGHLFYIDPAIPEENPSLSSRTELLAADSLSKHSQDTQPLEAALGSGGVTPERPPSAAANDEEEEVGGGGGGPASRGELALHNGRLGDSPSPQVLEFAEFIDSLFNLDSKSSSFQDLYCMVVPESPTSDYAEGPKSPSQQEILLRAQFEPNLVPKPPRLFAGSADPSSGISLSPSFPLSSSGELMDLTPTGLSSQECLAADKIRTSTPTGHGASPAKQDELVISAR
Sequence of DAGLβ (hDAGLβ-FLAG) (Q8NCG7 whole entry): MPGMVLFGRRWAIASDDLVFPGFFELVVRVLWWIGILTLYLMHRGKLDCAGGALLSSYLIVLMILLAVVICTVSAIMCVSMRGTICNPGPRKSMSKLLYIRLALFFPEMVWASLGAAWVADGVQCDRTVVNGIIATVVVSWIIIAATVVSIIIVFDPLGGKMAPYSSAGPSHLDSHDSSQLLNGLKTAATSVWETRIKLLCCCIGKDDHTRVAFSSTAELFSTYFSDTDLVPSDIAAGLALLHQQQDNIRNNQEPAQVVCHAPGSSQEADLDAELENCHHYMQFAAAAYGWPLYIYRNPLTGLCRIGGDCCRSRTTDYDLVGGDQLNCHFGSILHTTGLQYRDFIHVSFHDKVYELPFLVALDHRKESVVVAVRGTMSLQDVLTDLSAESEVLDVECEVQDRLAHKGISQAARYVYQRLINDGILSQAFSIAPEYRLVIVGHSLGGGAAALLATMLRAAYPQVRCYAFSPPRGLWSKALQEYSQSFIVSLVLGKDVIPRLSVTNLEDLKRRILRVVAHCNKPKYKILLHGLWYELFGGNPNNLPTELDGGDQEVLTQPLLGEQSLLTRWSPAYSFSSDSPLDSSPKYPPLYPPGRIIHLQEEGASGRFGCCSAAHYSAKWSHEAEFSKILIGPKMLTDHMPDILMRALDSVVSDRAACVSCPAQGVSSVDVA

SMILES | IC50 [1] [nM] | IC50 [2] [nM] | inhibition at 0.4 µM [1] [%] | inhibition at 0.4 µM [2] [%]
COc1cncc(OC)c1-c1ccc(-c2cnn(C(=O)N3CCCCC3Cc3ccccc3)n2)cc1 (centres unmarked) [Compound 70, (2-benzylpiperidin-1-yl)(4-(4-(3,5-dimethoxypyridin-4-yl)phenyl)-2H-1,2,3-triazol-2-yl)methanone] | > 10000 | 2000 to 10000 |  | 
COc1cc(OC)c(-c2ccc(-c3cn(C(=O)N4CCCCC4Cc4ccccc4)nn3)cn2)c(OC)c1 (centres unmarked) [Compound 74, (2-benzylpiperidin-1-yl)(4-(6-(2,4,6-trimethoxyphenyl)pyridin-3-yl)-1H-1,2,3-triazol-1-yl)methanone] | 2000 to 10000 | ≤ 400 |  | 
CN(C)C(=O)c1ccc(-c2ccc(-c3cn(C(=O)N4CCCCC4Cc4ccccc4)nn3)cc2)cc1 (centres unmarked) [Compound 75, 4′-(1-(2-benzylpiperidine-1-carbonyl)-1H-1,2,3-triazol-4-yl)-N,N-dimethyl-[1,1′-biphenyl]-4-carboxamide] | > 10000 | 2000 to 10000 |  | 
CN(C)C(=O)c1cccc(-c2ccc(-c3cn(C(=O)N4CCCCC4Cc4ccccc4)nn3)cc2)c1 (centres unmarked) [Compound 76, 4′-(1-(2-benzylpiperidine-1-carbonyl)-1H-1,2,3-triazol-4-yl)-N,N-dimethyl-[1,1′-biphenyl]-3-carboxamide] | > 10000 | 400 to 2000 |  | 
COc1cc(C(N)=O)cc(OC)c1-c1ccc(-c2cn(C(=O)N3CCCCC3Cc3ccccc3)nn2)cc1 (centres unmarked) [Compound 78, 4′-(1-(2-benzylpiperidine-1-carbonyl)-1H-1,2,3-triazol-4-yl)-2,6-dimethoxy-[1,1′-biphenyl]-4-carboxamide] | > 10000 | 400 to 2000 |  | 
CNC(=O)c1cc(OC)c(-c2ccc(-c3cn(C(=O)N4CCCCC4Cc4ccccc4)nn3)cc2)c(OC)c1 (centres unmarked) [Compound 79, 4′-(1-(2-benzylpiperidine-1-carbonyl)-1H-1,2,3-triazol-4-yl)-2,6-dimethoxy-N-methyl-[1,1′-biphenyl]-4-carboxamide] | > 10000 | 400 to 2000 |  | 
COc1cc(C(=O)N(C)C)cc(OC)c1-c1ccc(-c2cn(C(=O)N3CCCCC3Cc3ccccc3)nn2)cc1 (centres unmarked) [Compound 80, 4′-(1-(2-benzylpiperidine-1-carbonyl)-1H-1,2,3-triazol-4-yl)-2,6-dimethoxy-N,N-dimethyl-[1,1′-biphenyl]-4-carboxamide] | > 10000 | 400 to 2000 |  | 
COc1cc(C(=O)N2CCCC2)cc(OC)c1-c1ccc(-c2cn(C(=O)N3CCCCC3Cc3ccccc3)nn2)cc1 (centres unmarked) [Compound 81, (2-benzylpiperidin-1-yl)(4-(2′,6′-dimethoxy-4′-(pyrrolidine-1-carbonyl)-[1,1′-biphenyl]-4-yl)-1H-1,2,3-triazol-1-yl)methanone] | > 10000 | 400 to 2000 |  | 
COc1cnnc(OC)c1-c1ccc(-c2cn(C(=O)N3CCCCC3Cc3ccccc3)nn2)cc1 (centres unmarked) [Compound 83, (2-benzylpiperidin-1-yl)(4-(4-(3,5-dimethoxypyridazin-4-yl)phenyl)-1H-1,2,3-triazol-1-yl)methanone] | 2000 to 10000 | ≤ 400 |  | 
COc1cc(OC)c(-c2cn(C(=O)N3CCCCC3Cc3ccccc3)nn2)c(OC)c1 (centres unmarked) [Compound 84, (2-benzylpiperidin-1-yl)(4-(2,4,6-trimethoxyphenyl)-1H-1,2,3-triazol-1-yl)methanone] | 2000 to 10000 | > 10000 |  | 
COc1cc(OC)c(-c2cnn(C(=O)N3CCCCC3Cc3ccccc3)n2)c(OC)c1 (centres unmarked) [Compound 85, (2-benzylpiperidin-1-yl)(4-(2,4,6-trimethoxyphenyl)-1H-1,2,3-triazol-2-yl)methanone] | 2000 to 10000 | > 10000 |  | 
CS(=O)(=O)OCc1ccc(-c2cn(C(=O)N3CCCCC3Cc3ccccc3)nn2)cc1 (centres unmarked) [Compound 91, 4-(1-(2-benzylpiperidine-1-carbonyl)-1H-1,2,3-triazol-4-yl)benzyl methanesulfonate] | 2000 to 10000 | ≤ 400 |  | 
CN(C)Cc1ccc(-c2cn(C(=O)N3CCCCC3Cc3ccccc3)nn2)cc1 (centres unmarked) [Compound 92, (2-benzylpiperidin-1-yl)(4-(4-((dimethylamino)methyl)phenyl)-1H-1,2,3-triazol-1-yl)methanone] | 2000 to 10000 | 2000 to 10000 |  | 
O=C(N1CCCCC1Cc1ccccc1)n1cc(-c2ccc(CN3CCCC3)cc2)nn1 (centres unmarked) [Compound 93, (2-benzylpiperidin-1-yl)(4-(4-(pyrrolidin-1-ylmethyl)phenyl)-1H-1,2,3-triazol-1-yl)methanone] | > 10000 | 2000 to 10000 |  | 
COC(=O)N1CCN(C(=O)n2cc(-c3ccc(OC(F)(F)F)cc3)nn2)C(Cc2ccccc2)C1 (centres unmarked) [Compound 95, methyl 3-benzyl-4-(4-(4-(trifluoromethoxy)phenyl)-1H-1,2,3-triazole-1-carbonyl)piperazine-1-carboxylate] |  |  | 25 to 50 | ≥ 75
CC(C)OC(=O)N1CCN(C(=O)n2cc(-c3ccc(OC(F)(F)F)cc3)nn2)C(Cc2ccccc2)C1 (centres unmarked) [Compound 96, isopropyl 3-benzyl-4-(4-(4-(trifluoromethoxy)phenyl)-1H-1,2,3-triazole-1-carbonyl)piperazine-1-carboxylate] |  |  | 50 to 75 | ≥ 75
CC(C)OC(=O)N1CCN(C(=O)n2ncc(-c3ccc(OC(F)(F)F)cc3)n2)C(Cc2ccccc2)C1 (centres unmarked) [Compound 97, isopropyl 3-benzyl-4-(4-(4-(trifluoromethoxy)phenyl)-2H-1,2,3-triazole-2-carbonyl)piperazine-1-carboxylate] |  |  | 0 to 25 | 25 to 50

Results, then the molecule that gave them:

IC50 [1] [nM] | IC50 [2] [nM] | inhibition at 0.4 µM [1] [%] | inhibition at 0.4 µM [2] [%] | SMILES
2000 to 10000 | ≤ 400 |  |  | COc1cc(Cl)cc(OC)c1-c1ccc(-c2cn(C(=O)N3CCCCC3Cc3ccncc3)nn2)cc1 (centres unmarked) [Compound 69, (4-(4′-chloro-2′,6′-dimethoxy-[1,1′-biphenyl]-4-yl)-1H-1,2,3-triazol-1-yl)(2-(pyridin-4-ylmethyl)piperidin-1-yl)methanone]
400 to 2000 | ≤ 400 |  |  | Cc1cncc(C)c1-c1ccc(-c2cn(C(=O)N3CCCCC3Cc3ccccc3)nn2)cc1 (centres unmarked) [Compound 71, (2-benzylpiperidin-1-yl)(4-(4-(3,5-dimethylpyridin-4-yl)phenyl)-1H-1,2,3-triazol-1-yl)methanone]
400 to 2000 | 400 to 2000 |  |  | O=C(N1CCCCC1Cc1ccccc1)n1cc(-c2ccc(-c3c(F)cncc3F)cc2)nn1 (centres unmarked) [Compound 72, (2-benzylpiperidin-1-yl)(4-(4-(3,5-difluoropyridin-4-yl)phenyl)-1H-1,2,3-triazol-1-yl)methanone]
≤ 400 | ≤ 400 |  |  | O=C(N1CCCCC1Cc1ccccc1)n1cc(-c2ccc(-c3c(Cl)cncc3Cl)cc2)nn1 (centres unmarked) [Compound 73, (2-benzylpiperidin-1-yl)(4-(4-(3,5-dichloropyridin-4-yl)phenyl)-1H-1,2,3-triazol-1-yl)methanone]
400 to 2000 | ≤ 400 |  |  | CN(C)C(=O)c1ccccc1-c1ccc(-c2cn(C(=O)N3CCCCC3Cc3ccccc3)nn2)cc1 (centres unmarked) [Compound 77, 4′-(1-(2-benzylpiperidine-1-carbonyl)-1H-1,2,3-triazol-4-yl)-N,N-dimethyl-[1,1′-biphenyl]-2-carboxamide]
≤ 400 | ≤ 400 |  |  | COc1ncnc(OC)c1-c1ccc(-c2cn(C(=O)N3CCCCC3Cc3ccccc3)nn2)cc1 (centres unmarked) [Compound 82, (2-benzylpiperidin-1-yl)(4-(4-(4,6-dimethoxypyrimidin-5-yl)phenyl)-1H-1,2,3-triazol-1-yl)methanone]
≤ 400 | ≤ 400 |  |  | COc1ccc(-c2cn(C(=O)N3CCCCC3Cc3ccccc3)nn2)cc1 (centres unmarked) [Compound 87, (2-benzylpiperidin-1-yl)(4-(4-methoxyphenyl)-1H-1,2,3-triazol-1-yl)methanone]
≤ 400 | ≤ 400 |  |  | N#Cc1ccc(-c2cn(C(=O)N3CCCCC3Cc3ccccc3)nn2)cc1 (centres unmarked) [Compound 88, 4-(1-(2-benzylpiperidine-1-carbonyl)-1H-1,2,3-triazol-4-yl)benzonitrile]
≤ 400 | ≤ 400 |  |  | O=C(N1CCCCC1Cc1ccccc1)n1cc(-c2ccc([N+](=O)[O-])cc2)nn1 (centres unmarked) [Compound 89, (2-benzylpiperidin-1-yl)(4-(4-nitrophenyl)-1H-1,2,3-triazol-1-yl)methanone]
≤ 400 | ≤ 400 |  |  | O=C(N1CCCCC1Cc1ccccc1)n1cc(-c2ccc(Br)nc2)nn1 (centres unmarked) [Compound 90, (2-benzylpiperidin-1-yl)(4-(6-bromopyridin-3-yl)-1H-1,2,3-triazol-1-yl)methanone]
400 to 2000 | ≤ 400 |  |  | O=C(N1CCCCC1Cc1ccccc1)n1cc(-c2ccc(CN3CCOCC3)cc2)nn1 (centres unmarked) [Compound 94, (2-benzylpiperidin-1-yl)(4-(4-(morpholinomethyl)phenyl)-1H-1,2,3-triazol-1-yl)methanone]
